Source: patent US4996227A, “3-(heteroarylalkyene)- and 3-(arylalkylene)-2,4(3H,5H)-heterocyclic diones as cancer chemotherapy drugs” (priority 1989, dated 1991)

Legend:
Assay type in all cases: cell-based
[1] = tested on: human tumor H5325 SARCOMA; experiment: Human Tumor Stem Cell Assay, colony growth after one hour exposure; conditions: 1 h
Text: (§1) The in vitro Human Tumor Stem Cell Assay procedure described as follows has several advantages for testing the effectiveness of chemotherapy drugs such as the 3-(heteroarylalkylene)-2,4(3H,5H)-furandiones. The first advantage is that fresh tumor cells from a variety of tumor types were used rather than a small number of cell lines which have undergone severe selection pressures as they are passed in vitro. The second advantage is that only the anchorage-independent tumor cells will form colonies in soft agar so that any non-malignant cells present in the sample will not form colonies. Perhaps the most important advantage, however, is the emphasis on cells which have the ability to form colonies. These cells, which are generally called stem cells, usually comprise only a small percentage of all tumor cells. They are thought to be the most important cells for growth and distant spread of a tumor. In particular, these cells have the potential to leave the primary tumor and form new tumors at distant sites (called metastases). It is the effectiveness against these very important stem cells that the Human Tumor Stem Cell Assay measures.
(§2) One of the 3-(heteroarylalkylene)-2,4(3H,5H)-furandione compounds, 3-[(5-methyl-2-thienyl) methylene]-2,4(3H,5H)-furandione was evaluated against a series of 10 human tumors in the in vitro Human Tumor Cell Assay, along with conventional and standard chemotherapy agents.
(§3) In the procedure, a single cell suspension was prepared from tumors excised from patients during therapeutic or diagnostic surgical procedures. The human tumor cells were exposed to known anticancer drugs or to [(5-methyl-2-thienyl)methylene]-2,4 (3H, 5H)-furandione at a low (0.2 mcg/ml) or a high (1.0 mcg/ml) concentration for one hour. […] The suspension was washed with tissue culture medium to remove the drug.
(§4) The suspension was then cultured in a double soft agar suspension. Control cells which had been treated identically, except for exposure to the drugs, were also cultured. After one to two weeks, both the tumor cells and the control cells formed colonies in the soft agar which were enumerated under a microscope. The number of colonies grown from the drug-treated cells was compared to the number of colonies grown from the control cells, and the percentage growth after exposure to the drug was calculated.
(§5) The results are illustrated in Table 1, wherein the various numbers indicate the percentage of growth. For example, a small number like 6 means that the number of colonies is only 6% of the number without addition of the compound. On the other hand, a large number like 120 means that the number of colonies is 20% greater with the compound than without.
(§6) Of the nine tumors for which the higher concentration (1.0 mcg/ml) of the furandione was used, five gave inhibition of colony growth corresponding to borderline sensitive (30-50% growth) and four gave inhibition corresponding to sensitivity (0-30% growth). Clinical drugs are normally tested at 10% of their peak plasma concentration. For the standard chemotherapy drugs shown in Table 1, the low concentration (LO) corresponds to this 10% level, and the high concentration (HI) is at 50% of the peak plasma concentration. Of the same nine tumors, only two would have been rated as sensitive or borderline sensitive to any of the other clinical drugs tested.

human tumor H5319 BREAST = experiment: as above; conditions: HI: furandione 1.0 mcg/ml; standard drugs 50% of peak plasma concentration; 1 h
Text: as §1, §2, §3, §4, §5, §6

[2] = tested on: human tumor H5322 STOMACH; experiment: as above; conditions: 1 h
Text: as §1, §2, §3, §4, §5, §6

human tumor H5331 OVARY = experiment: as above; conditions: 1 h
Text: as §1, §2, §3, §4, §5, §6

human tumor H5337 COLON = experiment: as above; conditions: 1 h
Text: as §1, §2, §3, §4, §5, §6

human tumor H5349 BREAST = experiment: as above; conditions: 1 h
Text: as §1, §2, §3, §4, §5, §6

human tumor H5330 THYMUS = experiment: as above; conditions: 1 h
Text: as §1, §2, §3, §4, §5, §6

[3] = tested on: KS62 strain stem-cell human leukemia cells; experiment: Inhibition of human leukemia cell growth in vitro, as done in Example 3; conditions: for inhibition at 1 µg/mL / inhibition at 5 µg/mL / inhibition at 10 µg/mL: Homo sapiens
Experimental: A conventionally available cell line (K562) derived from human chronic granulocytic leukemia was employed in an in vitro procedure. The leukemia cell line was cultured in a suspension of RPMI 1640 plus 10% fetal calf serum. All initial cell concentrations for the cultures were 0.65 times 10^5 cells/ml. Four separate suspension cultures were employed with the first suspension culture having no additions. The second suspension culture included 100 microliters of the solvent DMSO per 10 ml of culture (control). The third culture contained 1 ug/ml of 3[[5-methyl-2 thienyl]methylene]-2, 4 (3H, 5H) furandione and the fourth culture contained 1 ug/ml of 3[[3-methyl-2-thienyl]methylene]-2, 4 (3H, 5H) furandione. The cell concentration of each of the four cultures was determined. After three days and again after five days.
In this example, aliquots of 1.0, 5.0 and 10.0 mcg/ml of each of the family compounds was prepared and assayed against KS62 strain stem-cell human leukemia cells in an in vitro procedure as done in Example 3 above.

human tumor H5318 OVARY = experiment: Human Tumor Stem Cell Assay, colony growth after one hour exposure; conditions: HI: furandione 1.0 mcg/ml; standard drugs 50% of peak plasma concentration; 1 h
Text: as §1, §2, §3, §4, §5, §6

[4] = HI: furandione 1.0 mcg/ml, standard drugs 50% of peak plasma concentration
[5] = LO: furandione 0.2 mcg/ml, standard drugs 10% of peak plasma concentration

| Molecule | inhibition at 1 µg/mL ([3]; 1.0 mcg/ml) [%] | inhibition at 5 µg/mL ([3]; 5.0 mcg/ml) [%] | inhibition at 10 µg/mL ([3]; 10.0 mcg/ml) [%] | also measured |
| --- | --- | --- | --- | --- |
| N[C@@H](Cc1ccc(N(CCCl)CCCl)cc1)C(=O)O [MPL, MELPHALAN] |  |  |  | percentage of growth (colonies vs control) [1, 4]: 12%; percentage of growth (colonies vs control) (human tumor H5319 BREAST): 85%; percentage of growth (colonies vs control) [2, 4]: 61%; percentage of growth (colonies vs control) [2, 5]: 54%; percentage of growth (colonies vs control) (human tumor H5331 OVARY; [4]): 76%; percentage of growth (colonies vs control) (human tumor H5337 COLON; [4]): 58%; percentage of growth (colonies vs control) (human tumor H5337 COLON; [5]): 76%; percentage of growth (colonies vs control) (human tumor H5349 BREAST; [4]): 65%; percentage of growth (colonies vs control) (human tumor H5349 BREAST; [5]): 63%; percentage of growth (colonies vs control) (human tumor H5330 THYMUS; [4]): 92%; percentage of growth (colonies vs control) (human tumor H5330 THYMUS; [5]): 31% |
| CN(C)c1ccc(C=C2C(=O)COC2=O)cc1 [Compound 57] | 17 | 94 | 96 |  |
| O=C1COC(=O)C1=Cc1ccc(Br)s1 [Compound 49] | 0 | 0 | 98 |  |
| CN(C)/N=N/c1[nH]cnc1C(N)=O [DTIC, DACARBAZINE] |  |  |  | percentage of growth (colonies vs control) (human tumor H5330 THYMUS; [4]): 59%; percentage of growth (colonies vs control) (human tumor H5330 THYMUS; [5]): 91% |
| Cc1ccsc1C=C1C(=O)CNC1=O [Compound 66, 3-(3-methyl-2-thienyl)methylene1-2,4(3H,5H) pyrrolidinedione] | 0 | 15 | 54 |  |
| Cc1ccc(C=C2C(=O)CSC2=O)s1 [Compound 69] | 13 | 41 | 100 |  |
| O=C1CNC(=O)C1=Cc1ccc(N2CCCCC2)s1 [Compound 68, 3-(5-N-piperdyl-2-thienyl)methylene1-2.4(3H.5H) pyrrolidinedione] |  |  |  | % Inhibition ([3]; 1.0 mcg/ml): 0%; % Inhibition ([3]; 5.0 mcg/ml): 0%; % Inhibition ([3]; 10.0 mcg/ml): 0% |
| CC1(C)OC(=O)C(=Cc2ccc(Br)s2)C1=O [Compound 60] | 0 | 96 | 100 |  |
| Cc1ccc(C=C2C(=O)OC(C)(C)C2=O)s1 [Compound 58] | 51 | 97 | 100 |  |
| Cc1ccc(C=CC=C2C(=O)COC2=O)s1 [Compound 53, 3-[(5-methyl-2-thienyl)propylenediene)-2,4(3H,5H)-furandione] | 0 | 71 | 99 |  |
| O=C1COC(=O)C1=Cc1ccc(N2CCCCC2)s1 [Compound 56] |  |  |  | % Inhibition ([3]; 1.0 mcg/ml): 0%; % Inhibition ([3]; 5.0 mcg/ml): 0%; % Inhibition ([3]; 10.0 mcg/ml): 0% |
| O=c1[nH]cc(F)c(=O)[nH]1 [Compound 5FU, 5FLUORACIL] |  |  |  | percentage of growth (colonies vs control) [1, 4]: 83%; percentage of growth (colonies vs control) (human tumor H5319 BREAST): 111%; percentage of growth (colonies vs control) [2, 4]: 79%; percentage of growth (colonies vs control) (human tumor H5331 OVARY; [4]): 51%; percentage of growth (colonies vs control) (human tumor H5331 OVARY; [5]): 94%; percentage of growth (colonies vs control) (human tumor H5337 COLON; [5]): 62%; percentage of growth (colonies vs control) (human tumor H5349 BREAST; [4]): 117% |
| ACTINOMYCEN D |  |  |  | percentage of growth (colonies vs control) [1, 4]: 22%; percentage of growth (colonies vs control) [1, 5]: 6% |
| O=C1CSC(=O)C1=Cc1ccc(Br)s1 [Compound 70, 3-[(5-bromo-2-thienyl)methylene]-2.4(3H,5H)-1-thiophene dione] | 22 | 30 | 54 |  |
| CCOC(=O)c1ccc(C=C2C(=O)CNC2=O)s1 [Compound 65] | 7 | 32 | 75 |  |
| CCOC(=O)c1ccc(C=C2C(=O)COC2=O)s1 [Compound 45, 3-[(5-ethoxycarbonyl-2-thienyl)-methylene]-2,4(3H,5H) -furandione] | 0 | 0 | 100 |  |
| CCOC(=O)c1ccc(C=C2C(=O)OC(C)(C)C2=O)s1 [Compound 61, 3-(5-carboxyethyl-2-thienyl)methylene1-5.5-dimethyl 11-2,4(3H)furandione] | 0 | 18 | 42 |  |
| Cc1ccsc1C=C1C(=O)COC1=O [Compound 51, 3-[(3-methyl-2-thienyl)methylene]-2.4(3H.5H)-furandione] | 37 | 100 | 100 |  |
| O=C1COC(=O)C1=CC=Cc1ccc(Br)s1 [Compound 54] | 27 | 99 | 100 |  |
| O=C1COC(=O)C1=Cc1ccc(C(=O)O)s1 [Compound 50, 3-[(5-carboxy-2-thienyl)-methylene]-2,4(3H,5H)-furandione] | 0 | 0 | 0 |  |
| CN(C)c1nc(N(C)C)nc(N(C)C)n1 [HXM, HEXAMETHYLMELAMINE] |  |  |  | percentage of growth (colonies vs control) (human tumor H5331 OVARY; [4]): 84%; percentage of growth (colonies vs control) (human tumor H5318 OVARY): 102% |
| O=C1COC(=O)C1=Cc1ccc(Cl)c(Cl)c1 [Compound 55, 3-[(3,4-dichloro-1-phenyl)methylene]-2,4(3H,5H) -furandione] |  |  |  | % Inhibition ([3]; 1.0 mcg/ml): 0%; % Inhibition ([3]; 5.0 mcg/ml): 0%; % Inhibition ([3]; 10.0 mcg/ml): 0% |
| Cc1ccc(C=C2C(=O)CNC2=O)s1 [Compound 63, 3-[(5-methyl-2-thienyl)methylene] -2,4(3H.5H) pyrrolidinedione] | 0 | 0 | 0 |  |
| Cc1ccc(C=CC=C2C(=O)CNC2=O)s1 [Compound 67, 3-[(5-methyl-2-thienyl)propylenediene]-2,4(3H,5H) pyrrolidinedione] | 0 | 0 | 94 |  |
| O=C1CNC(=O)C1=Cc1ccc(Br)s1 [Compound 64] | 0 | 0 | 0 |  |
| COc1ccc(C=C2C(=O)COC2=O)c(OC)c1 [Compound 52, 3-[(2,4-dimethoxy-1-phenyl)methylene]-2,4(3H,5H)-furandione] | 8 | 38 | 95 |  |
| CC1(C)OC(=O)C(=Cc2ccc(I)s2)C1=O [Compound 59, 3-[(5-iodo-2-thienyl)methylene]-5.5-dimethyl-2,4 (3H)furandione] | 1 | 37 | 94 |  |
| Cc1ccsc1C=C1C(=O)OC(C)(C)C1=O [Compound 62, 3[(3-methyl-2-thienyl)methylene]-5,5dimethyl-2,4(3H,5H) furandione] | 6 | 99 | 100 |  |
| O=C1COC(=O)C1=Cc1ccc(I)s1 [Compound 48, 3-[(5-iodo-2-thienyl)-methylene]-2.4(3H,5H)-furandione] | 0 | 0 | 98 |  |
| COc1cc([C@@H]2c3cc4c(cc3[C@@H](O[C@@H]3O[C@@H]5CO[C@@H](C)O[C@H]5[C@H](O)[C@H]3O)[C@H]3COC(=O)[C@H]23)OCO4)cc(OC)c1O [VP16] |  |  |  | percentage of growth (colonies vs control) (human tumor H5330 THYMUS; [4]): 77% |
